Results from patent publication US20220220472A1, “TARGETED THERAPY” (The Regents of the University of Michigan, priority 2019, published 2022).

How the values were obtained:
HCT116 cells = experiment: Clonogenic survival of HCT116 cells with Dox-inducible dCas9-Fok1-GFP and gRNA pairs; type: cell-based; conditions: Nu7441 200 nM, 12 days, no gRNA
Procedure: Cells were plated and treated with different concentrations of Dox for 12 days. Cells were then fixed and stained, colonies were counted, and colony numbers were reported as a percentage of control cells not treated with Dox. […] Cells were plated and treated with different concentrations of Dox for 12 days. Cells were then fixed and stained and colonies counted and expressed as a percentage of control cells not treated with Dox. In FIG. 5A and FIG. 5B, the gRNA pairs target two CRJs on chromosome 3 (3ab and 3cd), one on chromosome 5 (5ab), and one on the X chromosome (xab).
During the development of embodiments of the technology provided herein, experiments were conducted to evaluate use of a dCas9-Fok1 fusion protein and to produce a dCas9-Fok1 fusion protein further comprising a GFP domain to provide a tool to detect expression in cells. Furthermore, the dCas9-Fok1-GFP fusion and the gRNA genes were placed under the regulation of a tet-inducible promoter for performing experiments to establish the cells in culture or as xenografts and then induce expression by addition of doxycycline (Dox). […]
HCT116 cells with stable expression of dCas9-Fok1-GFP, 3ab3cd/Fok1-dcas9-GFP, 5ab3cd/Fok1-GFP, and 3abxab/dCas9-GFP were maintained in DMEM containing 10% FBS. […] Clonogenic survival colonies with 50 cells or more were counted.

UMUC-3 orthotopic tumors = experiment: UMUC-3 orthotopic xenograft tumor growth in NOD-scid mice; type: in vivo; conditions: UMUC-3 in NODscid mice; doxycycline plus Nu7441
Procedure: FIG. 7 is a schematic drawing showing an in vivo experiment comparing tumor growth between UMUC-3 cells expressing non-targeting gRNAs (left) and UMUC-3 cells expressing CRJ-targeting gRNAs (right). These cell lines are engineered to express luciferase for bioluminescent monitoring. Each mouse group represents 10 NODscid mice. […] Accordingly, further experiments are conducted to grow these cell lines as orthotopic xenografts in NOD-scid mice and to monitor tumor growth (e.g., using bioluminescence) in vivo as the CRISPR reagents are induced by doxycycline (e.g., provided in food and/or water). UMUC-3 cells are grown as orthotopic tumors in NOD-scid mice, animals are given doxycycline to induce Fok1-dCas9 and the two pairs of gRNAs in the cancer cells, and the effects on tumor growth are assessed by bioluminescence. […] The other cell line expresses CRJ-targeting gRNAs following doxycycline exposure. Experiments are conducted with or without a DNA-PK inhibitor (e.g., Nu7441) and with and without doxycycline in the drinking water and/or in the food. 10 animals are used per group with 8 groups for a total of 80 animals (FIG. 7).

HCT116 xenografts = experiment: HCT116 xenograft tumor growth in mice; type: in vivo; conditions: water with Dox and Nu7441
Procedure: In these experiments, HCT116 cells are injected into mice and each group is split into three treatment groups that receive ether regular water, water with Dox, or water with Dox and Nu7441.
Experiments are conducted in which three of the HCT116 cell lines with dox-inducible expression of dCas9-Fok1-GFP with and without CRJ-targeting gRNAs are used to form xenografts in the flank of mice. In these experiments, one million HCT116 cells in a 100 μl Matrigel suspension are injected s.c. into the hind leg of the mice (a total of 54 NOD/SCID or athymic BALB/C, 10-12 weeks old). When tumors reach sizes of 50-150 mm^3, each group is split into three groups (see, e.g., FIG. 2) where they receive ether regular water, water with Dox, or water with Dox and Nu7441. Tumor measurements are taken daily and mouse weights are recorded 3 times weekly. As the control tumors reach the predetermined tumor size limit, animals are euthanized. At this time, the tumors are removed, weighed, and documented (e.g., using digital imaging) and used for downstream analyses. Downstream analyses include measuring expression of dCas9-Fok1-GFP (green fluorescence) and γH2AX ChIP-PCR with primers for sequences near the CRJ and sequences far away as a control.

[1] = system: UMUC-3 bladder cancer cells; experiment: Clonogenic survival assay in UMUC-3 bladder cancer cells; type: cell-based, human; conditions: doxycycline induction plus Nu7441
Excerpt: FIG. 6C is a series of bar plots showing data collected from an […] clonogenic survival assay in the UMUC-3 bladder cells shown schematically in FIG. 6B. […] Further, treatments with the DNA-PK inhibitor Nu7441 improved the toxicity of the CRJ-targeting gRNAs (bottom row). The data are expressed as the mean and standard deviation of three biological replicates. Numbers (3a & X; 7 & 2; 7 & 4; 19 & 2; and 19 & 4) indicate the combinations of gRNA used for the experiment.
First, CRJs were identified in bladder cancer cells (see, e.g., FIG. 6A). Using sequence information from the CRJs identified in bladder cancer cells, gRNA were designed and UMUC-3 (ATCC Accession CRL-1749) cell lines were produced comprising doxycycline-inducible expression of Fok1-dCas9 and the CRJ-targeting gRNAs. gRNA sequences are provided in Table 2.
Six UMUC-3 bladder cancer sublines were generated—Two control cell lines were produced, one expressing no gRNAs and one expressing 2 pairs of non-targeting gRNAs; four experimental cell lines were produced expressing Fok1-dCas9-GFP and two pairs of CRJ-targeting gRNAs under the regulation of doxycycline (see, e.g., FIG. 6B). CRJ-specific DSBs were induced in the cells (e.g., using doxycycline) and toxicity was monitored to determine if interfering with DSB repair leads to increased killing of bladder cancer cells (see, e.g., FIG. 6C, top row). […]

For `O=c1cc(N2CCOCC2)oc2c(-c3cccc4c3sc3ccccc34)cccc12` [Nu7441], the “effect of Nu7441 on clonogenicity of cells expressing dCas9-Fok1-GFP alone” value (HCT116 cells) was “did not affect clonogenicity”, the “tumor growth inhibition with Nu7441” value (UMUC-3 orthotopic tumors) was “augments tumor growth inhibition” and the “suppression of tumor growth with Nu7441” value (HCT116 xenografts) was “Suppression of tumor growth is augmented”. The “toxicity / survival with DNA-PK inhibitor Nu7441” value [1] was “augmented this effect”.
